Reference: patent US10821115B2, “Compounds that inhibit Mcl-1 protein” (priority 2017, dated 2020)

Key:
[1] = tested on: human multiple myeloma cell line, OPM-2; experiment: Cell viability assay (OPM-2 10 FBS), CellTiter-Glo; assay type: cell-based; conditions: Homo sapiens, OPM-2, 16 h, read-out: OPM-2 10% FBS IC50 IP, OPM-2 cells, 10% FBS, 16 h incubation
How it was run: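 OPM-2 cells at 3000 cells/well in RPMI 1640 with 10% FBS were exposed to serially diluted compounds for 16 h at 37 °C, 5% CO2.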

[2] = target: recombinant human Mcl-1 (residues 171-327) / Bim interaction (Homo sapiens (Human), UniProt Q07820); experiment: biochemical; assay type: binding; conditions: 0.1 nM Mcl-1(171-327), 0.05 nM biotin-Bim (51-76); read-out: Mcl-1 HTRF IC50
recombinant human Mcl-1 (residues 171-327) / Bim interaction, sequence (Q07820 171-327): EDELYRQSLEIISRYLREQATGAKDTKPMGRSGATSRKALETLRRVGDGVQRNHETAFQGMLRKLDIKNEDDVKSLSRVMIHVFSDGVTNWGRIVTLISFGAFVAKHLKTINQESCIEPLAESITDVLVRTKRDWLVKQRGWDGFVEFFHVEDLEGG

Compound	IC50 [1]	IC50 [2]
COCC[C@@H]1[C@@H](C)C/C=C/[C@@](CN2CCN(C3COC3)CC2)(OC)[C@@H]2CC[C@H]2CN2C[C@@]3(CCCc4cc(Cl)ccc43)COc3ccc(cc32)C(=O)NS1(=O)=O [Example 187, (1S,3′R,6′R,7′R,8′E,11′S,12′R)-6-chloro-7′-methoxy-12′-(2-methoxyethyl)-11′-methyl-7′-((4-(3-oxetanyl)-1-piperazinyl)methyl)-3,4-dihydro-2H,15′H-spiro[naphthalene-1,22′-[20]oxa[13]thia[1,14]diazatetracyclo [14.7.2.0~3,6~.0~19,24~]pentacosa[8,16,18,24]tetraen]-15′-one 13′,13′-dioxide]	43 nM	0.066 nM
COCC[C@@H]1[C@@H](C)C/C=C/[C@@](CN2CCN(C(C)C)CC2)(OC)[C@@H]2CC[C@H]2CN2C[C@@]3(CCCc4cc(Cl)ccc43)COc3ccc(cc32)C(=O)NS1(=O)=O [Example 188, (1S,3′R,6′R,7′R,8′E,11′S,12′R)-6-chloro-7′-methoxy-12′-(2-methoxyethyl)-11′-methyl-7′-((4-(1-methylethyl)-1-piperazinyl)methyl)-3,4-dihydro-2H,15′H-spiro[naphthalene-1,22′-[20]oxa[13]thia[1,14]diazatetracyclo [14.7.2.0~3,6~.0~19,24~]pentacosa[8,16,18,24]tetraen]-15′-one 13′,13′-dioxide]	38 nM	0.084 nM
COCC[C@@H]1[C@@H](C)C/C=C/[C@@](CN2CCN(C(C)(C)C)CC2)(OC)[C@@H]2CC[C@H]2CN2C[C@@]3(CCCc4cc(Cl)ccc43)COc3ccc(cc32)C(=O)NS1(=O)=O [Example 189, (1S,3′R,6′R,7′R,8′E,11′S,12′R)-7′-((4-tert-butyl-1-piperazinyl)methyl)-6-chloro-7′-methoxy-12′-(2-methoxyethyl)-11′-methyl-3,4-dihydro-2H,15′H-spiro[naphthalene-1,22′-[20]oxa[13]thia[1,14]diazatetracyclo [14.7.2.0~3,6~.0~19,24~]pentacosa[8,16,18,24]tetraen]-15′-one 13′,13′-dioxide]	33 nM	0.084 nM
CCO[C@]1(CN2CCN(C(C)(C)C)CC2)/C=C/C[C@H](C)[C@@H](CCOC)S(=O)(=O)NC(=O)c2ccc3c(c2)N(C[C@@H]2CC[C@H]21)C[C@@]1(CCCc2cc(Cl)ccc21)CO3 [Example 190, (1S,3′R,6′R,7′R,8′E,11′S,12′R)-7′-((4-tert-butyl-1-piperazinyl)methyl)-6-chloro-7′-ethoxy-12′-(2-methoxyethyl)-11′-methyl-3,4-dihydro-2H,15′H-spiro[naphthalene-1,22′-[20]oxa[13]thia[1,14]diazatetracyclo [14.7.2.0~3,6~.0~19,24~]pentacosa[8,16,18,24]tetraen]-15′-one 13′,13′-dioxide]	53 nM	0.087 nM
COCC[C@@H]1[C@@H](C)C/C=C/[C@@](CN2C[C@@H](C)N(C)[C@@H](C)C2)(OC)[C@@H]2CC[C@H]2CN2C[C@@]3(CCCc4cc(Cl)ccc43)COc3ccc(cc32)C(=O)NS1(=O)=O [Example 191, (1S,3′R,6′R,7′R,8′E,11′S,12′R)-6-chloro-7′-methoxy-12′-(2-methoxyethyl)-11′-methyl-7′-(((3R,5S)-3,4,5-trimethyl-1-piperazinyl)methyl)-3,4-dihydro-2H,15′H-spiro[naphthalene-1,22′-[20]oxa[13]thia[1,14]diazatetracyclo [14.7.2.0~3,6~.0~19,24~]pentacosa[8,16,18,24]tetrae11]-15′-one 13′,13′-dioxide]	42 nM	0.096 nM
COCC[C@@H]1[C@@H](C)C/C=C/[C@@](CN2CCN(C3(C)COC3)CC2)(OC)[C@@H]2CC[C@H]2CN2C[C@@]3(CCCc4cc(Cl)ccc43)COc3ccc(cc32)C(=O)NS1(=O)=O [Example 192, (1S,3′R,6′R,7′R,8′E,11′S,12′R)-6-chloro-7′-methoxy-12′-(2-methoxyethyl)-11′-methyl-7′-((4-(3-methyl-3-oxetanyl)-1-piperazinyl)methyl)-3,4-dihydro-2H,15′H-spiro[naphthalene-1,22′-[20]oxa[13]thia[1,14]diazatetracyclo [14.7.2.0~3,6~.0~19,24~]pentacosa[8,16,18,24]tetraen]-15′-one 13′,13′-dioxide]	65 nM	0.078 nM
COCCN1CCN(C[C@]2(OC)/C=C/C[C@H](C)[C@@H](C)S(=O)(=O)NC(=O)c3ccc4c(c3)N(C[C@@H]3CC[C@H]32)C[C@@]2(CCCc3cc(Cl)ccc32)CO4)CC1 [Example 195, (1S,3′R,6′R,7′S,8′E,11′S,12′R)-6-chloro-7′-methoxy-7′-((4-(2-methoxyethyl)-1-piperazinyl)methyl)-11′,12′-dimethyl-3,4-dihydro-2H,15′H-spiro[naphthalene-1,22′-[20]oxa[13]thia[1,14]diazatetracyclo [14.7.2.0~3,6~.0~19,24~]pentacosa[8,16,18,24]tetraen]-15′-one 13′,13′-dioxide]	65 nM	0.214 nM
CO[C@@]1(CN2CCN(C)CC2)/C=C/C[C@H](C)[C@@H](C)S(=O)(=O)NC(=O)c2ccc3c(c2)N(C[C@@H]2CC[C@H]21)C[C@@]1(CCCc2cc(Cl)ccc21)CO3 [Example 196, (1S,3′R,6′R,7′S,8′E,11′S,12′R)-6-chloro-7′-methoxy-11′,12′-dimethyl-7′-((4-methyl-1-piperazinyl)methyl)-3,4-dihydro-2H,15′H-spiro[naphthalene-1,22′-[20]oxa[13]thia[1,14]diazatetracyclo [14.7.2.0~3,6~.0~19,24~]pentacosa[8,16,18,24]tetraen]-15′-one 13′,13′-dioxide]	304 nM	0.47 nM
CO[C@@]1(CN2CCOC3(COC3)C2)/C=C/C[C@H](C)[C@@H](C)S(=O)(=O)NC(=O)c2ccc3c(c2)N(C[C@@H]2CC[C@H]21)C[C@@]1(CCCc2cc(Cl)ccc21)CO3 [Example 198, (1S,3′R,6′R,7′S,8′E,11′S,12′R)-6-chloro-7′-(2,5-dioxa-8-azaspiro[3.5]non-8-ylmethyl)-7′-methoxy-11′,12′-dimethyl-3,4-dihydro-2H,15′H-spiro[naphthalene-1,22′-[20]oxa[13]thia[1,14]diazatetracyclo [14.7.2.0~3,6~.0~19,24~]pentacosa[8,16,18,24]tetraen]-15′-one 13′,13′-dioxide]	1310 nM	0.181 nM
COC[C@H]1CN(C[C@]2(OC)/C=C/C[C@H](C)[C@@H](C)S(=O)(=O)NC(=O)c3ccc4c(c3)N(C[C@@H]3CC[C@H]32)C[C@@]2(CCCc3cc(Cl)ccc32)CO4)CCO1 [Example 199, (1S,3′R,6′R,7′S,8′E,11′S,12′R)-6-chloro-7′-methoxy-7′-(((2R)-2-(methoxymethyl)-4-morpholinyl)methyl)-11′,12′-dimethyl-3,4-dihydro-2H,15′H-spiro[naphthalene-1,22′-[20]oxa[13]thia[1,14]diazatetracyclo [14.7.2.0~3,6~.0~19,24~]pentacosa[8,16,18,24]tetraen]-15′-one 13′,13′-dioxide]	208 nM	0.119 nM
CO[C@@]1(CN2CCc3nocc3C2)/C=C/C[C@H](C)[C@@H](C)S(=O)(=O)NC(=O)c2ccc3c(c2)N(C[C@@H]2CC[C@H]21)C[C@@]1(CCCc2cc(Cl)ccc21)CO3 [Example 200]	583 nM	0.315 nM
